According to patent US20230014445A1, “ALLOSTERIC CHROMENONE INHIBITORS OF PHOSPHOINOSITIDE 3-KINASE (PI3K) FOR THE TREATMENT OF DISEASE” (Petra Pharma Corporation, priority 2021, published 2023):

Columns and labels:
[1] = target: T1, human full length PIK3KA H1047R mutant (p110α/p85α complex) (Homo sapiens, UniProt P42336, H1047R); assay: PI3K-Alpha Kinase (PIK3CA) biochemical activity, H1047R mutant (ADP-Glo); settings: 20 uM ATP
T1 construct: Recombinant, catalytically active human full length PIK3KA Wild-type and H1047R mutant were purchased; 6xHis (N); purchased EMD Millipore Sigma 14-792M
From the text: (§1) PI3K-Alpha Kinase (PIK3CA) Activity, Wild-Type and H1047R Mutant and Determining IC50 Values for Inhibitors
(§2) Recombinant, catalytically active human full length PIK3KA Wild-type and H1047R mutant were purchased as 1:1 complex of N-terminal 6×his tagged p110α (catalytic) and untagged p85α, (regulatory subunit) from EMD Millipore Sigma (cat. no. 14-602M and 14-792M, respectively). PIP2diC8 (Avanti Polar Lipids Inc., cat. no. 850185) or Soy PI (Avanti Polar Lipids Inc., cat. No. 840044P) was used as lipid substrate. PIP2diC8 or PI lyophilized powder was dissolved in milliQ water to a concentration of 1 mM just before use. 10 mM stock compounds in DMSO were serially diluted 1:3 to generate a 10-point curve and plated using an acoustic liquid handler system (Echo 550 series instrument, Labcyte). A 10× intermediate compound plate (200 uM starting compound concentration and 10% DMSO) was prepared before starting the reaction. A typical reaction mixture (50 uL) comprised 40 mM HEPES buffer, pH 7.4, 25 mM MgCl2, 0.01% v/v triton-X-100, 1% v/v DMSO, 20 mM NaCl, 1-5 nM WT or H1047R PI3K protein, 20 uM ATP, and 50 uM PIP2diC8 or Soy PI. 1% DMSO buffer alone without test compound was employed as MAX control (full activity in the absence of any inhibitor), and no enzyme control was used to determine the level of background Adenosine 5′-diphosphate (ADP) (MIN control). First, Wild-type (WT) and H1047R mutant protein in kinase buffer with all components except ATP were incubated with or without compound at 27° C. for 1 h. After the pre-incubation, the reaction was initiated by the addition of […] (20 uM final concentration). The reaction was allowed to proceed until about 10% conversion of ATP (2 uM ADP) at 27° C. After that time, 5 uL of reaction was mixed with 5 uL of ADP-Kinase Glo Reagent (ADP-Glo Kinase assay kit, Promega cat. no. V9102) supplemented with MgCl2 10 mM to stop the reaction and deplete the remaining ATP for 40 min at room temperature. Then, 10 uL of Kinase Detection Reagent (ADP-Glo Kinase assay kit, Promega cat. no. V9102) was added to simultaneously convert ADP to ATP and allow the newly synthesized ATP to be measured using a luciferase/luciferin reaction. After 30 min at room temperature the light generated was measured using a luminometer (EnVision plate reader, Perkin Elmer). Process data through Genedata-Screener tool. Relative IC50 values are determined using luminescence units by calculating percent inhibition with respect to on-plate “MIN” and “MAX” controls. Data was analyzed using a 4-parameter nonlinear logistic equation (four-parameter logistic concentration-response curve):
(§3) Y=bot+[(top−bot)/1+(x/IC50)slope]
(§4) where Y=% inhibition, X=concentration yielding y % inhibition, Bottom=minimum value of y attained by curve, Top=maximum value of y attained by curve and Slope=steepness of curve at IC50.
(§5) % Inh=[(median Max−x/median Max−median Min)]·100
(§6) IC50: concentration of compound that reduces a given response (ligand binding, enzyme response) by 50%. IC50 relative: concentration giving half the compound's maximum response.
(§7) For IC50 values shown in Table A, “A” means IC50<0.5 μM; “B” means IC50 ranging between 0.5 μM and 1.0 μM; “C” means IC50 ranging between 1 μM and 5 μM; “D” means IC50 ranging between 5 μM and 10 μM; “E” means IC50>10 μM.

[2] = target: T2, human full length PIK3KA Wild-type (p110α/p85α complex) (Homo sapiens, UniProt P42336); assay: PI3K-Alpha Kinase (PIK3CA) biochemical activity, wild-type (ADP-Glo); settings: 20 uM ATP
T2 construct: Recombinant, catalytically active human full length PIK3KA Wild-type and H1047R mutant were purchased; 6xHis (N); purchased EMD Millipore Sigma 14-602M
From the text: as §1, §2, §3, §4, §5, §6, §7

T1 sequence (P42336 whole entry H1047R): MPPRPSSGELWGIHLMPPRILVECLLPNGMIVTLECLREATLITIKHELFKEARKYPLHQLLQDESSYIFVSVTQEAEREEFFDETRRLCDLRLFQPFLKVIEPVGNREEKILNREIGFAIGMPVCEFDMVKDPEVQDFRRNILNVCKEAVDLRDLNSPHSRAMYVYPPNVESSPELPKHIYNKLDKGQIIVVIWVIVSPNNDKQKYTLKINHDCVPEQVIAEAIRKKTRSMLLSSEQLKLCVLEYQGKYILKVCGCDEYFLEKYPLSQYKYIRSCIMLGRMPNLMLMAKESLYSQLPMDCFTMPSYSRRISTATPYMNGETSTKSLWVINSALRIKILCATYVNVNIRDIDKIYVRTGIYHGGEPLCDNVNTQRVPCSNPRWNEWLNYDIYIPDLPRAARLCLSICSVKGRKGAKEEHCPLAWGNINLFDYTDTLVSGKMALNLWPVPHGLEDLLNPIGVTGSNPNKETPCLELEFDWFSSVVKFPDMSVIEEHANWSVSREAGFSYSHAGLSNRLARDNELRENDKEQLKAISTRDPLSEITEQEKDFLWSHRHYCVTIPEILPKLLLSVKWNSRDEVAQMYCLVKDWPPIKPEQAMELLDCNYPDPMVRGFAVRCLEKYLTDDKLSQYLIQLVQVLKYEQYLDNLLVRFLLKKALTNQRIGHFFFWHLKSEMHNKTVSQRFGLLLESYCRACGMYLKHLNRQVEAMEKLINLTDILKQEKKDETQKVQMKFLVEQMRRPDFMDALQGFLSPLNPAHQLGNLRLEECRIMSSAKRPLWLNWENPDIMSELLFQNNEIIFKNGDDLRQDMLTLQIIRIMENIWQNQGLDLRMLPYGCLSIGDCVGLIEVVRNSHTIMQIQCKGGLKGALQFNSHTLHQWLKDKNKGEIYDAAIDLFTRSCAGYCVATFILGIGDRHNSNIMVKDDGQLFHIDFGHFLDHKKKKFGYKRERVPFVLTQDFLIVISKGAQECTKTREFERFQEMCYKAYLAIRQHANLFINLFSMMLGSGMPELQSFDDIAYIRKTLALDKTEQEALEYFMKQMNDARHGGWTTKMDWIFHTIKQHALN
T1 sequence (P27986 whole entry partner): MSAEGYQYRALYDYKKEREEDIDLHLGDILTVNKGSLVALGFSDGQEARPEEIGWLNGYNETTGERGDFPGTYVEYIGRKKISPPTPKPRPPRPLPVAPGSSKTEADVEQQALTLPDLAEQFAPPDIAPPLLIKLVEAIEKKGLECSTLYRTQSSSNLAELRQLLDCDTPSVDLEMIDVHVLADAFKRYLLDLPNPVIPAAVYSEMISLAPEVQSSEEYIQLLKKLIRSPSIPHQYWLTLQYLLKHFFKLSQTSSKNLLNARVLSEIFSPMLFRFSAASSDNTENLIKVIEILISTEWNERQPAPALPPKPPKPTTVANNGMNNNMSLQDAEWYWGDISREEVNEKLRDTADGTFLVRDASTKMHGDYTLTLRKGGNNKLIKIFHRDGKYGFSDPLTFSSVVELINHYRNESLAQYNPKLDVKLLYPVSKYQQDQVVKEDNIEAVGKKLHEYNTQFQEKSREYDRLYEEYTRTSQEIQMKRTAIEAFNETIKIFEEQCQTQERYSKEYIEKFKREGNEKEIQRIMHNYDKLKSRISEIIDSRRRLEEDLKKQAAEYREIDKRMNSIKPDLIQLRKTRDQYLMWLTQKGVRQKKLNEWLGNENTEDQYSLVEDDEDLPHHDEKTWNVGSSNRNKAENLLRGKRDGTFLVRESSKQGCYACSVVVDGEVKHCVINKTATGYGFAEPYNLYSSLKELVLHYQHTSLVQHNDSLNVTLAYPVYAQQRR

Compound | IC50 ([1]; Soy PI lipid substrate) | IC50 ([2]; Soy PI lipid substrate) | IC50 ([1]; PIP2diC8 lipid substrate) | IC50 ([2]; PIP2diC8 lipid substrate)
Cc1cc(C(C)Nc2ccccc2C(=O)O)c2oc(-c3cnc(OC(C)C)nc3)cc(=O)c2c1 (stereo not shown) [Example 6, 2-[1-[2-(2-Isopropoxypyrimidin-5-yl)-6-methyl-4-oxo-chromen-8-yl]ethylamino]benzoic acid 2,2,2-trifluoroacetic acid] | < 500 nM | > 10000 nM |  | 
Cc1cc(C(C)Nc2ccccc2C(=O)O)c2oc(-c3cnn(-c4ccc(C(F)(F)F)cc4)c3)cc(=O)c2c1 (single isomer, unassigned) [Example 87, 2-[1-[6-Methyl-4-oxo-2-[1-[4-(trifluoromethyl)phenyl]pyrazol-4-yl]chromen-8-yl]ethylamino]benzoic acid, Isomer 2,2,2,2-trifluoroacetic acid] | < 500 nM | 5000 to 10000 nM |  | 
Cc1cc(C(C)Nc2ccccc2C(=O)O)c2oc(-c3cn(-c4ccc(C#N)cc4)nc3C)cc(=O)c2c1 (single isomer, unassigned) [Example 109, 2-[1-[2-[1-(4-Cyanophenyl)-3-methyl-pyrazol-4-yl]-6-methyl-4-oxo-chromen-8-yl]ethylamino]benzoic acid, Isomer 2,2,2,2-trifluoroacetic acid] | 500 to 1000 nM | 5000 to 10000 nM |  | 
Cc1cc(C(C)Nc2ccc(Cl)c(F)c2C(=O)O)c2oc(-c3ccccn3)cc(=O)c2c1 (single isomer, unassigned; isomer 1) [Example 78, 3-Chloro-2-fluoro-6-[1-[6-methyl-4-oxo-2-(2-pyridyl)chromen-8-yl]ethylamino]benzoic acid, Isomer 1] | < 500 nM | 5000 to 10000 nM |  | 
Cc1cc(C(C)Nc2ccccc2C(=O)O)c2oc(-c3nnc(-c4ccc(C#N)cc4)o3)cc(=O)c2c1 (single isomer, unassigned; isomer 2) [Example 90, 2-[1-[2-[5-(4-Cyanophenyl)-1,3,4-oxadiazol-2-yl]-6-methyl-4-oxo-chromen-8-yl]ethylamino]benzoic acid, Isomer 2] | < 500 nM | > 10000 nM |  | 
Cc1cc(C(C)Nc2ccccc2C(=O)O)c2oc(-c3cccnc3)cc(=O)c2c1 (single isomer, unassigned; isomer 2) [Example 14, 2-[1-[6-Methyl-4-oxo-2-(3-pyridyl)chromen-8-yl]ethylamino]benzoic acid, Isomer 2] | < 500 nM | 1000 to 5000 nM |  | 
COC(=O)c1ccccc1NC(C)c1cc(C)cc2c(=O)cc(-c3c[nH]c(=O)cn3)oc12 (single isomer, unassigned; isomer 2) [Example 56, Methyl 2-[1-[6-methyl-4-oxo-2-(6-oxo-1H-pyrazin-3-yl)chromen-8-yl]ethylamino]benzoate, Isomer 2] | 1000 to 5000 nM | > 10000 nM |  | 
Cc1cc(C(C)Nc2ccccc2C(=O)O)c2oc(-n3ccnc3)cc(=O)c2c1 (single isomer, unassigned) [Example 59, 2-[1-(2-Imidazol-1-yl-6-methyl-4-oxo-chromen-8-yl)ethylamino]benzoic acid, Isomer 2,2,2,2-trifluoroacetic acid] |  |  | < 500 nM | 1000 to 5000 nM
Cc1cc(C(C)Nc2ccccc2C(=O)O)c2oc(-c3cn[nH]c3)cc(=O)c2c1 (single isomer, unassigned) [Example 51, 2-[1-[6-Methyl-4-oxo-2-(1H-pyrazol-4-yl)chromen-8-yl]ethylamino]benzoic acid, Isomer 2,2,2,2-trifluoroacetic acid] | < 500 nM | 1000 to 5000 nM |  | 
Cc1cc(C(C)Nc2ccccc2C(=O)O)c2oc(-c3cnn(-c4ccc(C#N)cc4)c3)cc(=O)c2c1 (single isomer, unassigned) [Example 64, 2-[1-2-[1-(4-Cyanophenyl)pyrazol-4-yl]-6-methyl-4-oxo-chromen-8-yl]ethylamino]benzoic acid, Isomer 2,2,2,2-trifluoroacetic acid] | < 500 nM | 1000 to 5000 nM |  | 
COc1cccc(-n2cc(-c3cc(=O)c4cc(C)cc(C(C)Nc5ccccc5C(=O)O)c4o3)nn2)c1 (single isomer, unassigned; isomer 2) [Example 98, 2-[1-2-[1-(3-Methoxyphenyl)triazol-4-yl]-6-methyl-4-oxo-chromen-8-yl]ethylamino]benzoic acid, Isomer 2] | < 500 nM | 1000 to 5000 nM |  | 
Cc1cc(C(C)Nc2ccccc2C(=O)O)c2oc(-c3cnn(-c4cccnc4)c3)c(C)c(=O)c2c1 (single isomer, unassigned) [Example 63, 2-[1-[3,6-Dimethyl-4-oxo-2-[1-(3-pyridyl)pyrazol-4-yl]chromen-8-yl]ethylamino]benzoic acid, Isomer 1,2,2,2-trifluoroacetic acid] | < 500 nM | 1000 to 5000 nM |  | 
Cc1cc(C(C)Nc2ccccc2C(=O)O)c2oc(-c3cnn(-c4cccnc4)c3)cc(=O)c2c1 (stereo not shown) [Example 48, 2-[1-[6-Methyl-4-oxo-2-[1-(3-pyridyl)pyrazol-4-yl]chromen-8-yl]ethylamino]benzoic acid 2,2,2-trifluoroacetic acid] | < 500 nM | 5000 to 10000 nM |  | 
Cc1cc(C(C)Nc2ccccc2C(=O)O)c2oc(-c3cnn(C)c3)cc(=O)c2c1 (stereo not shown) [Example 47, 2-[1-[6-Methyl-2-(1-methylpyrazol-4-yl)-4-oxo-chromen-8-yl]ethylamino]benzoic acid] |  |  | 500 to 1000 nM | 1000 to 5000 nM
Cc1cc(C(C)Nc2cccc(F)c2C(=O)O)c2oc(-c3cnn(-c4ccc(C#N)cc4)c3)cc(=O)c2c1 (stereo not shown) [Example 101, 2-[1-[2-[1-(4-Cyanophenyl)pyrazol-4-yl]-6-methyl-4-oxo-chromen-8-yl]ethylamino]-6-fluoro-benzoic acid 2,2,2-trifluoroacetic acid] | < 500 nM | 500 to 1000 nM |  | 
Cc1cc(C(C)Nc2ccccc2C(=O)O)c2oc(-c3ccc(S(C)(=O)=O)nc3)cc(=O)c2c1 (single isomer, unassigned; isomer 2) [Example 40, 2-[1-[6-Methyl-2-(6-methylsulfonyl-3-pyridyl)-4-oxo-chromen-8-yl]ethylamino]benzoic acid, Isomer 2] | < 500 nM | > 10000 nM |  | 
Cc1cc(C(C)Nc2ccc(Cl)nc2C(=O)O)c2oc(-c3cnccn3)cc(=O)c2c1 (single isomer, unassigned; isomer 1) [Example 28, 6-Chloro-3-[1-(6-methyl-4-oxo-2-pyrazin-2-yl-chromen-8-yl)ethylamino]pyridine-2-carboxylic acid, Isomer 1] | < 500 nM | 1000 to 5000 nM |  | 
Cc1cc(C(C)Nc2ccccc2C(=O)O)c2oc(-c3cnn(-c4ccccc4C#N)c3)cc(=O)c2c1 (single isomer, unassigned) [Example 107] | < 500 nM | > 10000 nM |  | 
Cc1cc(C(C)Nc2ccccc2C(=O)O)c2oc(-c3ncccn3)c(C)c(=O)c2c1 (single isomer, unassigned; isomer 1) [Example 34, 2-[1-(3,6-Dimethyl-4-oxo-2-pyrimidin-2-yl-chromen-8-yl)ethylamino]benzoic acid, Isomer 1] | < 500 nM | 1000 to 5000 nM |  | 
Cc1cc(C(C)Nc2ccccc2C(=O)O)c2oc(-c3cnc(C#CC(C)(C)O)nc3)cc(=O)c2c1 (single isomer, unassigned) [Example 102, 2-[1-[2-[2-(3-Hydroxy-3-methyl-but-1-ynyl)pyrimidin-5-yl]-6-methyl-4-oxo-chromen-8-yl]ethylamino]benzoic acid, Isomer 2,2,2,2-trifluoroacetic acid] | 500 to 1000 nM | 5000 to 10000 nM |  | 
